Assay results taken from patent publication US4999436A, “Aryl-substituted thiophene 3-ols, derivatives and analogs useful as lipoxgenase inhibitors” (Merck & Co., Inc., priority 1989, dated 1991).
“And” between values parts separate entries of the source, which are not always exact repeats. Equal entries are not always repeated.

What was measured:
cyclooxygenase = target: T1, cyclooxygenase (Ovis aries, UniProt P05979); assay: RSVM-CO: Ram Seminal Vesicle Microsomal Cyclooxygenase assay; format: biochemical; conditions: for inhibition at 0.01 µg/mL: 0.01 μg/ml; for inhibition at 0.1 µg/mL: 0.1 μg/ml; for inhibition at 1 µg/mL: 1 μg/ml; for inhibition at 10 µg/mL: 10 μg/ml
T1 construct: Ram seminal vesicular glands were trimmed of fat; from tissue; host or cells: ram seminal vesicular glands, microsomal pellet (105K xg)
T1 sequence (P05979 25-600): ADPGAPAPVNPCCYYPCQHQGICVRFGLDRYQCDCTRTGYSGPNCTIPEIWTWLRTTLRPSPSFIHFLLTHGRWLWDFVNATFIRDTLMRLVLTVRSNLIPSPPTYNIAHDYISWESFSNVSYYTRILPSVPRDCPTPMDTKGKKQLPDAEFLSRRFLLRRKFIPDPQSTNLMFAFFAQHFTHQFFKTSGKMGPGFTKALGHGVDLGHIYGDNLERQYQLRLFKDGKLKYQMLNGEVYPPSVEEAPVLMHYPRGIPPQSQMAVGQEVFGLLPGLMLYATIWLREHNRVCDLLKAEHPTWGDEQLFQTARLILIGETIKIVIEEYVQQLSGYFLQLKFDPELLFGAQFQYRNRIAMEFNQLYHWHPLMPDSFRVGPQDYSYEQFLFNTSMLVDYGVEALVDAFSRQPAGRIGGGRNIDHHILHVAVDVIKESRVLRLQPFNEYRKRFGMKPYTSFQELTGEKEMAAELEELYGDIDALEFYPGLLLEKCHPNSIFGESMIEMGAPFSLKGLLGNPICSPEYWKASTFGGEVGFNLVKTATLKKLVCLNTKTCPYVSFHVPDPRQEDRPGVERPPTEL
Text: (§1) Two screening methods were employed for the purposes of evaluating the biological activities of the compounds of the present invention. The PMN5LO assay is a direct measure of the capacity to inhibit 5-lipoxygenase. The second protocol, RSVM-CO, is a method of determining inhibition of cyclooxygenase enzyme activity and as such it serves as a negative control.
B. Ram Seminal Vesicle Microsomal Cyclooxygenase (RSVM-CO) Assay Protocol
Ram seminal vesicular glands were trimmed of fat, 50 grams diced into 250 mls ice cold 0.1 M potassium phosphate (pH 7.6) buffer and homogenized using a Brinkman Polytron. The suspension was centrifuged 10 minutes at […] (4° C.) and the supernatant filtered through two cheesecloth layers. The filtrate was centrifuged 160 minutes at 105K xg, the supernatant thereof discarded, and the pellet surface rinsed with a small volume of buffer. The pellets were combined in a small volume, briefly homogenized with the Polytron and frozen in 0.5 ml aliquots at -80° C. The protein concentration was about 50 mg/ml.
The thawed enzyme was diluted 1:63 with 0.125 M Na EDTA (pH 8.0) containing 50 μg/ml BSA. A substrate-cofactor premix was prepared with 66 μM ^14 C-arachidonic acid (about 20K cpm/12.5 μl) in 500 μl 0.125 M Na EDTA (pH 8.0) plus 10 μl 50 mM hydroquinone and 10 μl 200 mM glutathione. To each sample well in the 96 well plate, agents dissolved in 0.5 μ DMSO were added, followed by 12.5 μl of the diluted enzyme. After a 4 minute preincubation at room temperature, 12.5 μl of the substrate-cofactor mix was added to start the reaction. The reaction was terminated after 20 minutes at room temperature by adding 25 μl of methanol containing 200 μg PGE2 and 400 μg AA per ml.
The entire reaction mixture was spotted onto a preadsorbent silica gel GF thin layer plate and, after air drying 45 minutes, developed 12 cm in ethyl acetate:glacial acetic acid (99:1).
The developed lanes were scanned for the distribution of radiolabel using a Bioscan Imaging Detector and the integrated peaks compared to standards and controls yielding % inhibition.

5-lipoxygenase = target: T2, 5-lipoxygenase (Rattus norvegicus, UniProt P12527); assay: PMN5LO assay: inhibition of LTB4 production in A23187-stimulated rat peritoneal PMN (RIA); format: cell-based; conditions: for IC50: estimated concentration required for 50% inhibition
T2 construct: endogenous in cells; host or cells: casein-elicited peritoneal polymorphonuclear leukocytes of male Sprague-Dawley rats
T2 sequence (P12527 1-673): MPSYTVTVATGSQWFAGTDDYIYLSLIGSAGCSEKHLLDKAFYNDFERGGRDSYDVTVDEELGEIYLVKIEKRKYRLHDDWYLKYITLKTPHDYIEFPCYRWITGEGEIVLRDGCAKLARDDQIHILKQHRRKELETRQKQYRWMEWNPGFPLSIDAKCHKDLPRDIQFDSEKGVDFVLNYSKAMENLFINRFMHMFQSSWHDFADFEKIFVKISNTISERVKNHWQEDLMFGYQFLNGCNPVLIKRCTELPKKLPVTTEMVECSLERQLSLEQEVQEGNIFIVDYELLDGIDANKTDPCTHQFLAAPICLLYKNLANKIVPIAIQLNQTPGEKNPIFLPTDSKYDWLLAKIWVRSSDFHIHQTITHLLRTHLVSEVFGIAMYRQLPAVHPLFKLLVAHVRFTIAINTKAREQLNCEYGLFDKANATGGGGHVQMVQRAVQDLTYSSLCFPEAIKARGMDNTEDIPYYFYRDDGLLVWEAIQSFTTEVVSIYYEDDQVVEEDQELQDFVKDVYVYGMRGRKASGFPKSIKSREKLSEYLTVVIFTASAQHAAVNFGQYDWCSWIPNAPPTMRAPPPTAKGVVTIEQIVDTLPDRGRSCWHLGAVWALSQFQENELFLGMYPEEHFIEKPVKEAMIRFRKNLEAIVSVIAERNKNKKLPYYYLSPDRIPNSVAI
Method: as §1
Elicition of Rat Peritoneal polymorphonuclear leukoytes (PMN)
Male Sprague-Dawley rats (about 350 grams) were injected intraperitoneally the day before use with 8 ml of 12% sodium caseinate. The next day the animals were killed by CO2 asphyxiation and the peritoneal cavity lavaged twice with 20 ml of Hanks balanced salts containing 15 mM HEPES (pH 7.4), 1.4 mM Ca^++ and 0.7 mM Mg^++ (Hepes-Hanks). The suspensions were filtered through plastic mesh and centrifuged at […] for 5 minutes. The cells were resuspended in 50 ml Hepes-Hanks and recentrifuged. The PMN pellets were combined and suspended at 1.25×10^7 cells/ml.
The cell suspension was then diluted 1:10, preincubated 5 minutes at 37° C. and distributed in 200 μl aliquots in the wells of 96 well microtiter plates. The wells had previously received samples of the compounds of the present invention, controls, etc., in 25 μl of 0.001% fatty acidfree BSA in Hepes-Hanks. The plates were incubated 2 minutes at 37° C. and then the cells were stimulated to produce LTB4 by the addition of 25 μl of 100 μM calcium ionophore, designated A23187. After 4 minutes at 37° C. the plates were frozen in dry ice.
Radioimmunoassay (RIA) of LTB4
The frozen plates were thawed to 4° C. and 25 μl aliquots removed to V well plates. Antibody to LTB4 (50 μl) was added and, after 15 minutes at room temperature, 50 μl of ^3 H-LTB4 was added and the plates were stored overnight at 4° C. to allow equilibration. The next day the "free" 3H-LTB4 was removed by adsorption to dextran coated charcoal [90 μl per well of a 4% charcoal suspension with 0.25% Dextran T-70 in 10 mM potassium phosphate (pH 7.3) containing lmM EDTA and 0.25 mM thimerasol] during a 10 minute ice temperature incubation. The charcoal was removed by a 10 minute centrifugation at 200 sg. Aliquots of the supernatant were counted in a Packard 460, analyzed in a Masscomp computer and the data drawn up as % inhibition of LTB4 production.

Row | inhibition at 0.33 µg/mL (5-lipoxygenase; 0.33 μg/ml) [%] | inhibition at 1 µg/mL (5-lipoxygenase; 1 μg/ml) [%] | IC50 (5-lipoxygenase) | inhibition at 0.012 µg/mL (5-lipoxygenase; 0.012 μg/ml) [%] | inhibition at 0.037 µg/mL (5-lipoxygenase; 0.037 μg/ml) [%] | inhibition at 0.11 µg/mL (5-lipoxygenase; 0.11 μg/ml) [%] | SMILES | also measured
1 | – | – | 2.5 µM | – | – | – | COc1ccc(-c2sc3c(c2OC(C)=O)Cc2ccccc2-3)cc1 | PMN5LO % inhibition (5-lipoxygenase; 0.012 μg/ml): 0%; inhibition at 0.37 µg/mL (5-lipoxygenase; 0.37 μg/ml (so in the source)): 42%
2 | 34 | 79 | – | 15 | 15 | 17 | CC(=O)Oc1cc(-c2ccccc2)sc1-c1ccccc1C | –
3 | – | – | 0.088 µM and 0.074 µM | 27 | 57 | 100 | CC(=O)Oc1cc(-c2ccccc2)sc1-c1ccccc1 [Compound 3] | inhibition at 0.01 µg/mL (cyclooxygenase): 13%; inhibition at 0.1 µg/mL (cyclooxygenase): 13%; inhibition at 1 µg/mL (cyclooxygenase): 8%; inhibition at 10 µg/mL (cyclooxygenase): 29%; PMN5LO % inhibition (5-lipoxygenase; 0.012 μg/ml): 38%; PMN5LO % inhibition (5-lipoxygenase; 0.037 μg/ml): 56%; inhibition at 0.05 µg/mL (5-lipoxygenase; 0.05 μg/ml): 100%
4 | – | 38 | – | – | – | – | CC(=O)Oc1cc(-c2cccc(C(F)(F)F)c2)sc1-c1ccccc1 [Compound 5] | –
5 | – | 22 | – | – | – | – | CCC(=O)Oc1cc(-c2cccc(C(F)(F)F)c2)sc1-c1ccccc1 [Compound 6] | –
6 | – | – | > 3 µM | – | – | – | COc1ccc(-c2sc3c(c2OC(C)=O)CCCc2ccccc2-3)cc1 [Compound 20] | –

Further lines, the molecule ahead of its results:

Row | SMILES | inhibition at 0.33 µg/mL (5-lipoxygenase; 0.33 μg/ml) [%] | inhibition at 1 µg/mL (5-lipoxygenase; 1 μg/ml) [%] | IC50 (5-lipoxygenase) | inhibition at 0.012 µg/mL (5-lipoxygenase; 0.012 μg/ml) [%] | inhibition at 0.037 µg/mL (5-lipoxygenase; 0.037 μg/ml) [%] | inhibition at 0.11 µg/mL (5-lipoxygenase; 0.11 μg/ml) [%] | also measured
7 | CC(=O)Oc1cc(-c2cccs2)sc1-c1ccccc1 | – | – | – | – | – | – | inhibition at 0.01 µg/mL (cyclooxygenase): 0%; inhibition at 0.1 µg/mL (cyclooxygenase): 0%; inhibition at 1 µg/mL (cyclooxygenase): 0%; PMN5LO % inhibition (5-lipoxygenase; 0.11 μg/ml): 51% and 100%; PMN5LO % inhibition (5-lipoxygenase; 0.33 μg/ml): 52% and 100%; PMN5LO % inhibition (5-lipoxygenase; 1 μg/ml): 74% and 100%
8 | COc1ccc(-c2sc3c(c2OC(C)=O)CCCC3)cc1 | 85 | 100 | 0.65 µM | – | – | – | inhibition at 0.1 µg/mL (cyclooxygenase): 100%; inhibition at 1 µg/mL (cyclooxygenase): 11%; PMN5LO % inhibition (5-lipoxygenase; 0.33 μg/ml): 88%; PMN5LO % inhibition (5-lipoxygenase; 1 μg/ml): 97%; IC50 (5-lipoxygenase; unit inferred): 0.38 µM
9 | c1ccc(-c2ccc(-c3ccccc3)s2)cc1 | 23 | 38 | 4 µM | 13 | 0 | 15 | –
10 | CC(=O)Oc1cc(-c2ccccc2)oc1-c1ccccc1 | 53 | – | – | 25 | 6 | 36 | PMN5LO % inhibition (5-lipoxygenase; 1 μg/ml): 33% and 66%
11 | CC(=O)Oc1csc(-c2ccccc2)c1 [Compound 1] | 19 | 18 | – | 5 | 0 | 1 | –
12 | Oc1c(-c2ccccc2)sc(-c2ccccc2)c1-c1ccccc1 [Compound 2, 3-Hydroxy-2,4,5-triphenylthiophene] | – | 53 | ~3 µM | 22 | 14 | 0 | inhibition at 10 µg/mL (cyclooxygenase): 23%; inhibition at 0.3 µg/mL (5-lipoxygenase; 0.3 μg/ml): 0%; inhibition at 10 µg/mL (5-lipoxygenase; 10 μg/ml): 95%
13 | CC(=O)Oc1c(-c2ccccc2)sc(-c2ccccc2)c1-c1ccccc1 [Compound 8] | – | – | – | – | – | – | PMN5LO % inhibition (5-lipoxygenase; 1 μg/ml): 18%
14 | CC(=O)Oc1c(C)sc(-c2ccccc2)c1-c1ccccc1 [Compound 9] | – | 13 | – | – | – | – | –
15 | Cc1ccccc1-c1cc(O)c(-c2ccccc2)s1 [Compound 18, 3-Hydroxy-5-(2-methylphenyl)-2-phenylthiophene] | 100 | 96 | 0.12 µM | 20 | 46 | 96 | –
16 | COc1cc(-c2ccccc2)sc1-c1ccccc1 [Compound 19] | 0 | 0 | – | 0 | 0 | 0 | –
17 | Oc1cc(-c2ccccc2)sc1-c1cccnc1 [Compound 22] | 81 | 87 | – | 14 | 19 | 45 | –
